Assay results reported in patent US4804681A, “Metal complexes having an antineoplastic action and medicaments containing these complexes” (priority 1980, dated 1989).

How the values were obtained:
sarcoma 180 tumor cells = assay: Sarcoma 180 tumor model (i.p.), median survival time T/C; assay type: in vivo, female NMRI mice; conditions: for T/C (median survival time) / cure rate (cured animals/treated animals): single dose
Method: 1. Sarcoma 180 tumor model
In each case about 10^6 sarcoma 180 tumor cells in 0.2 ml of physiological saline solution are transferred intraperitoneally (I.P.) to female NMRI mice which are about 6 weeks old and weigh 18 to 20 g. The tumor is kept in passage in the same mouse strain. The tumor cells are removed from freshly killed animals immediately before transplantation. On inoculation, the animals are randomized. 6 mice are used per dosage. Cisplatin and cyclophosphamide are used as the control substances. The number of control groups (untreated animals) is chosen such that it corresponds to about the square root of the total number of groups. The substances are injected intraperitoneally, in each case 24 hours after the transplantation, as suspensions in customary solubilizing agents, such as Tween® (polyoxyethylene derivatives of sorbitan esters).
The stated dose was administered once at the start of the experiment, as described. The factor T/C given in per cent denotes the percentage increase in median survival time of the treated animals compared with the median survival time of the untreated control animals. In some cases, the cure rate, that is to say the number of cured animals in relation to the number of treated animals, is given in the Table, in parentheses after the factor T/C.
The experiment is discontinued as soon as the median survival time T/C of the treated animals has reached 300% of the median survival time of the untreated animals. In calculating the median survival time, the animals still alive at the end of the experiment are taken as being dead at the end of the experiment.

[1] = tested on: testicular tumors, ovarian tumors, oat-cell carcinomas; conditions: cited from earlier work
ascitic Ehrlich tumors = conditions: mice; cited from earlier work

## N.N.[Cl][Pt][Cl] [cisplatin, cis-diamminedichloroplatinum(II), reference compound]
Sarcoma 180 tumor cells; 1 mg/kg i.p.
  T/C (median survival time): 112%
  cure rate (cured animals/treated animals): 0/6
Sarcoma 180 tumor cells; 2 mg/kg i.p.
  T/C (median survival time): 133%
  cure rate (cured animals/treated animals): 0/6
Sarcoma 180 tumor cells; 3 mg/kg i.p.
  T/C (median survival time): 300%
  cure rate (cured animals/treated animals): 2/6
Sarcoma 180 tumor cells; 5 mg/kg i.p.
  T/C (median survival time): 300%
  cure rate (cured animals/treated animals): 5/6
Sarcoma 180 tumor cells; 8 mg/kg i.p.
  T/C (median survival time): 300%
  cure rate (cured animals/treated animals): 6/6
Sarcoma 180 tumor cells; 13 mg/kg i.p.
  T/C (median survival time): 300%
  cure rate (cured animals/treated animals): 6/6
Sarcoma 180 tumor cells; 22 mg/kg i.p.
  T/C (median survival time): 42%
  cure rate (cured animals/treated animals): 0/6
Sarcoma 180 tumor cells; about 20 mg/kg
  median survival time compared with untreated controls: shorter than that of the untreated control animals
Sarcoma 180 tumor cells; about 8 to 10 mg/kg
  cure of animals: most of the animals are cured
[1]; after only a single therapeutic dose
  renal damage and damage to hearing: found with considerable frequency
[1]
  nausea and retching: long-lasting severe nausea
[1]; testicular tumors, ovarian tumors, oat-cell carcinomas
  antitumor activity: extremly potent antitumor agent

## CC(=O)C=C([O][Zr]([Br])([Br])[O]C(=CC(C)=O)c1ccccc1)c1ccccc1 [dibromobis(benzoylacetonato)zirconium(IV)]
Sarcoma 180 tumor cells; 54 mg/kg i.p.
  T/C (median survival time): 300%
Sarcoma 180 tumor cells; 80 mg/kg i.p.
  T/C (median survival time): 300%
Sarcoma 180 tumor cells; 126 mg/kg i.p.
  T/C (median survival time): 191%
Sarcoma 180 tumor cells; 172 mg/kg i.p.
  T/C (median survival time): 172%
Sarcoma 180 tumor cells; 247 mg/kg i.p.
  T/C (median survival time): 184%

## CC(=O)C=C([O][Zr]([Cl])([Cl])[O]C(=CC(C)=O)c1ccccc1)c1ccccc1 [dichlorobis(benzoylacetonato)zirconium(IV)]
Sarcoma 180 tumor cells; 31 mg/kg i.p.
  T/C (median survival time): 234%
Sarcoma 180 tumor cells; 46 mg/kg i.p.
  T/C (median survival time): 300%
Sarcoma 180 tumor cells; 68 mg/kg i.p.
  T/C (median survival time): 300%
Sarcoma 180 tumor cells; 97 mg/kg i.p.
  T/C (median survival time): 300%
Sarcoma 180 tumor cells; 145 mg/kg i.p.
  T/C (median survival time): 193%
Sarcoma 180 tumor cells; 208 mg/kg i.p.
  T/C (median survival time): 144%

## [Cl-].[Cl-].[Hf+4].c1cc[cH-]c1.c1cc[cH-]c1 [hafnocene dichloride]
Ascitic Ehrlich tumors
  action on ascitic Ehrlich tumors: inhibiting action

## [Cl][Zr+2][Cl].c1cc[cH-]c1.c1cc[cH-]c1 [zirconocene dichloride]
Ascitic Ehrlich tumors
  action on ascitic Ehrlich tumors: inhibiting action

## titanocene dichloride
Ascitic Ehrlich tumors
  action on ascitic Ehrlich tumors: inhibiting action
